Measured values from patent publication US10265321B2, “Uses of salt-inducible kinase (SIK) inhibitors” (Dana-Farber Cancer Institute, Inc., priority 2014, dated 2019).

Tests used:
SGK = experiment: Protein kinase assay against SGK (selectivity); assay type: biochemical; conditions: DMSO set to 100%
Src = Src (Homo sapiens, UniProt P12931); conditions: cited from earlier work
BMDCs [1] = experiment: Multiplex qPCR of transcripts in stimulated BMDCs; assay type: cell-based, mouse; conditions: 2 days pre-treatment, 4 hr LPS, R848 or zymosan
Method: (§1) Bone marrow-derived DCs were differentiated from C57BL/6 bone marrow in the presence of GM-CSF-conditioned media. CD11c^+ CX3CR1^hi myeloid cells and CD11c^+ CX3CR1^− DCs were isolated from the small intestine lamina propria of Cx3cr1^eGFP/+ mice (12). Detection of cell-surface Thy1.1 expression on BMDCs from 10BiT reporter mice was conducted as described previously (24). Cell viability was estimated by change in total cellular ATP levels using CellTiterGlo assays (Promega). Preparation of recombinant SIK proteins and IC50 measurements were conducted as described previously (21). Total RNA was extracted using a NucleoSpin 96 RNA isolation kit (Macherey-Nagel) followed by cDNA synthesis and multiplex RT-PCR using a microfluidic dynamic array (Fluidigm). The concentrations of TNF-α, IL-6, IL-10, IL-12p40, IL-1β and RANTES in culture supernatants were detected using a FlexSet Cytometric bead array (BD Biosciences). Alternatively, IL-10 secretion was quantified using ELISA (BD Biosciences) or AlphaLISA (PerkinElmer) assays. NO production was estimated based on nitrate content in culture medium using the Greiss reagent.
C57BL/6 mice were euthanized and bone marrow harvested from femurs and tibias as described previously (Graham D B, et al. (2007) An ITAM-signaling pathway controls cross-presentation of particulate but not soluble antigens in dendritic cells. The Journal of experimental medicine 204(12):2889-2897). BMDCs were differentiated DMEM supplemented with 2 mM GlutaMAX, 10% (vol/vol) FBS, penicillin, streptomycin and 2% mouse GM-CSF conditioned media derived from TOPO cells. Cultures were differentiated for 7 days and routinely analyzed for >90% CD11c (APC anti-CD11c clone HL3; BD Biosciences) positivity by flow cytometry before use in experiments. Lentiviral transduction of bone marrow cultures was conducted by addition of 293T culture supernatants containing lentiviral particles encoding the CREB dependent luciferase reporter construct or CRTC3 targeting or control shRNAs one day post-isolation. Stable integration of lentiviral shRNA constructs was selected by addition of puromycin (3 μg/mL) on day 4 post-transduction. After 2 days, stably transduced BMDCs were released from selection and used in subsequent assays. […]
Total RNA was extracted using a NucleoSpin 96 RNA isolation kit (Macherey-Nagel). […] Relative gene expression was calculated from Ct values and normalized against ACTB mRNA levels as described previously (Pfaffl MW (2001) A new mathematical model for relative quantification in real-time RT-PCR. Nucleic acids research 29(9):e45). […]

[2] = test system: CD11c+ CX3CR1hi myeloid cells and CD11c+ CX3CR1− DCs from the small intestine; experiment: Cytokine production by lamina propria gut myeloid cells; assay type: cell-based, mouse; conditions: 0.3 μM, 30 min pre-treatment
Method: as §1
(§2) After stimulation of cells with microbial ligands, the culture medium was removed, clarified by centrifugation for 10 min at 14,000×g, and the concentration of TNF-α, IL-6, IL-10, IL-12p40, IL-1β and RANTES were measured using FlexSet Cytokine Bead Array (BD Biosciences) according to the manufacturer's instructions. Where indicated, ELISAs were used to detect IL-10 and IL-12p70 (BD Biosciences) according to the manufacturer's instructions. NO production was estimated based on nitrate content in culture medium using the Greiss reagent as described previously (Miletic A V, et al. (2007) Vav proteins control MyD88-dependent oxidative burst. Blood 109(8):3360-3368).
CX3CR1GFP/+ mice were euthanized and intestines cut into 3-4 pieces before inversion onto polyethylene tubes (Becton Dickinson). Intestinal fragments were washed with calcium- and magnesium-free PBS (Lonza), and mucus was removed with 1 mM DTT. […]

[3] = test system: Il10-Thy1.1 reporter in 10BiT BMDCs; experiment: Il10-Thy1.1 reporter gene detection in 10BiT BMDCs; assay type: cell-based, mouse; conditions: 2 days treatment (0.5 μM), zymosan 18 hr
Method: as §1
Preparation of BMDCs from 10BiT reporter mice expressing an il10-Thy1.1 transgene, SIK inhibitor treatment and zymosan stimulation was conducted as described above. […]

BMDCs [4] = experiment: Cytokine (cytometric bead array) and NO (Greiss) production by stimulated BMDCs; assay type: cell-based, mouse
Method: as §1
C57BL/6 mice were euthanized and bone marrow harvested from femurs and tibias as described previously (Graham D B, et al. (2007) An ITAM-signaling pathway controls cross-presentation of particulate but not soluble antigens in dendritic cells. The Journal of experimental medicine 204(12):2889-2897). BMDCs were differentiated DMEM supplemented with 2 mM GlutaMAX, 10% (vol/vol) FBS, penicillin, streptomycin and 2% mouse GM-CSF conditioned media derived from TOPO cells. Cultures were differentiated for 7 days and routinely analyzed for >90% CD11c (APC anti-CD11c clone HL3; BD Biosciences) positivity by flow cytometry before use in experiments. Lentiviral transduction of bone marrow cultures was conducted by addition of 293T culture supernatants containing lentiviral particles encoding the CREB dependent luciferase reporter construct or CRTC3 targeting or control shRNAs one day post-isolation. Stable integration of lentiviral shRNA constructs was selected by addition of puromycin (3 μg/mL) on day 4 post-transduction. After 2 days, stably transduced BMDCs were released from selection and used in subsequent assays. Unless otherwise indicated, cells were treated for 2 days with PGE2 (5 μM) or HG-9-91-01 (0.5 μM) or an equivalent concentration of DMSO (≤0.5%) and then stimulated for 18 hr with LPS (100 ng/mL), R848 (10 μg/mL) or zymosan (4 μg/mL).
as §2

Sequence of Src (P12931 whole entry, species assumed): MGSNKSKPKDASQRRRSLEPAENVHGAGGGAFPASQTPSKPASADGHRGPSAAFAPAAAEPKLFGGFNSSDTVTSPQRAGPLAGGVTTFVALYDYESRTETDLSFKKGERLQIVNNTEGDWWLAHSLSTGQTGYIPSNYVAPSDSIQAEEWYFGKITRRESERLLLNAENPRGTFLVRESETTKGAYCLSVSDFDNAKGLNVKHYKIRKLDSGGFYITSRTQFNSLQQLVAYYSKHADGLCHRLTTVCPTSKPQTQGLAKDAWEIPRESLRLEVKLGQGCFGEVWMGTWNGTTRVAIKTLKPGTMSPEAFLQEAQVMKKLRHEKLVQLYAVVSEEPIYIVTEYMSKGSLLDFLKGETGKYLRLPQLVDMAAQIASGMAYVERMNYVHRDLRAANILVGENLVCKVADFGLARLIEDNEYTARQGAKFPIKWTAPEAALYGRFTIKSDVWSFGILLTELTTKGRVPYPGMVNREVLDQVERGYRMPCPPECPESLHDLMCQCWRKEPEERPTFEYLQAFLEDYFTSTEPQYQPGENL

Row | Structure (SMILES) | Activity of protein kinase treated with 0.1 μM of I-1 (% control (DMSO)) SGK (SGK; 0.1 μM) | Activity of protein kinase treated with 1 μM of I-1 (% control (DMSO)) SGK (SGK; 1 μM) | Src activity remaining (Src) | IL-10 mRNA levels (BMDCs [1]) | abundance of Arg1 and Nos2 transcripts (BMDCs [1]) | IL-10 production by CD11c+ CX3CR1hi cells ([2]; LPS or zymosan 18 hr) | secretion of TNF-α by gut myeloid cell subsets ([2]; both subsets) | production of IL-6 or RANTES by gut myeloid cell subsets ([2]; either subset) | enhancement of the fraction of BMDCs expressing Il10 following zymosan stimulation [3] | IL-10 secretion (BMDCs [4]; BMDCs pre-treated, LPS, R848 or zymosan 18 hr) | IL-1β production (BMDCs [4]; BMDCs, stimulation with R848 or zymosan) | production of IL-12p40 and TNF-α (BMDCs [4]; BMDCs, versus PGE2, regardless of activating stimuli)
1 | Cc1cccc(C)c1NC(=O)N1C/C=C\COc2cccc(c2)Nc2cc1ncn2 [I-1] | 96 % control (DMSO) | 100 % control (DMSO) |  |  |  |  |  |  |  |  |  | 
2 | COc1ccc(N(C(=O)Nc2c(C)cccc2C)c2cc(Nc3ccc(N4CCN(C)CC4)cc3)ncn2)c(OC)c1 [HG-9-91-01] |  |  | less than 4% | robustly enhanced | significantly blunted | enhanced IL-10 production | reduced secretion of TNF-α | not affected | more than 5 fold | similarly induced | suppressed | suppressed to a significantly greater extent
